According to patent US20050106582A1, “Compositions and methods utilizing stable reporter cell lines for detection of CREB-dependent signal transduction” (Stratagene, priority 1999, published 2005):
Where two headings read alike, the source gives them in different places.

How the values were obtained:
[1] = test system: GAL4-CREB; assay: Luciferase reporter assay in RCLH-CREB stable cells treated with extracellular stimuli; assay type: cell-based, human; settings: 5 hours
[2] = test system: GAL4-CREB; assay type: cell-based, human; settings: transient assays, 10 ug/ml; data not shown

Row | Compound | stimulation of luciferase expression ([1]; in the presence of 100 uM forskolin) | effect on luciferase expression ([1]; 50 ug/ml) | stimulation of luciferase expression [2] [fold]
1 | CCCCCCCCCCCCCC(=O)O[C@@H]1[C@@H](C)[C@@]2(O)[C@@H](C=C(CO)C[C@]3(O)C(=O)C(C)=C[C@@H]23)[C@@H]2C(C)(C)[C@]12OC(C)=O [PMA, phorbol-12-myristate-13-acetate] | approximately 70 fold |  | 
2 | adenylate cyclase toxin [AC toxin] |  | approximately 7 fold | 13
